Test results: PubChem BioAssay AID260 (DTP/NCI, 2004)
Values joined by “and” are separate entries in the source; they are usually repeats but may differ in a detail not shown here. Equal values may be shown once. Inconclusive results and toxic doses are left out.

Test system: CD2F1 mice, intracerebral L1210 leukemia, survival T/C
Assay: NCI In Vivo Anticancer Drug Screen. Data for tumor model L1210 Leukemia (intracerebral) in CD2F1 (CDF1) mice
Conditions: higher = longer survival
Protocol: The antitumor activity of compounds was measured in mice bearing transplantable tumors. Survival or tumor size were measured and the results are expressed as the measurement made in the treated group (T) divided by the measurement made in the vehicle treated control group (C). The tumor model used in this assay is L1210 Leukemia (intracerebral) in CD2F1 (CDF1) mice

[1] = endpoint: median survival time, dose: 40.0 mg/kg/injection, schedule: Q01DX001 (ip), vehicle: saline
[2] = endpoint: median survival time, dose: 80.0 mg/kg/injection, schedule: Q01DX001 (ip), vehicle: saline

CCCN(C)C(=O)N(CCCl)N=O
T/C (endpoint: median survival time, dose: 15.6 mg/kg/injection, schedule: Q01DX001 (ip), vehicle: DMSO): 166 % of control
T/C (endpoint: median survival time, dose: 15.6 mg/kg/injection, schedule: Q01DX001 (oral), vehicle: saline + alcohol): 113 % of control
T/C (endpoint: median survival time, dose: 31.3 mg/kg/injection, schedule: Q01DX001 (ip), vehicle: saline + alcohol): 172 % of control
T/C (endpoint: median survival time, dose: 31.3 mg/kg/injection, schedule: Q01DX001 (oral), vehicle: saline + alcohol): 154 % of control
T/C (endpoint: median survival time, dose: 62.5 mg/kg/injection, schedule: Q01DX001 (ip), vehicle: saline + alcohol): 389 % of control
T/C (endpoint: median survival time, dose: 62.5 mg/kg/injection, schedule: Q01DX001 (oral), vehicle: saline + alcohol): 271 % of control
T/C (endpoint: median survival time, dose: 125.0 mg/kg/injection, schedule: Q01DX001 (ip), vehicle: saline + alcohol): 198 % of control
T/C (endpoint: median survival time, dose: 125.0 mg/kg/injection, schedule: Q01DX001 (oral), vehicle: saline + alcohol): 490 % of control
T/C (endpoint: median survival time, dose: 250.0 mg/kg/injection, schedule: Q01DX001 (ip), vehicle: DMSO): 169 % of control
T/C (endpoint: median survival time, dose: 250.0 mg/kg/injection, schedule: Q01DX001 (ip), vehicle: saline + alcohol): 116 % of control
T/C (endpoint: median survival time, dose: 250.0 mg/kg/injection, schedule: Q01DX001 (oral), vehicle: saline + alcohol): 97 % of control

O=P1(N(CCCl)CCCl)NC(OO)CCO1 (stereo unspecified)
T/C [1]: 100 % of control
T/C [2]: 102 % of control
T/C (endpoint: median survival time, dose: 160.0 mg/kg/injection, schedule: Q01DX001 (ip), vehicle: saline): 103 % of control

C1CN(P2(N3CC3)=NP(N3CC3)(N3CC3)=NP(N3CC3)(N3CC3)=N2)CCO1 (stereo unspecified)
T/C (endpoint: median survival time, dose: 20.0 mg/kg/injection, schedule: Q01DX001 (ip), vehicle: saline): 92 % of control
T/C [1]: 95 % of control
T/C [2]: 101 % of control

O=P1(NCCCl)OCCC(OO)N1CCCl (stereo unspecified)
T/C (endpoint: median survival time, dose: 40.0 mg/kg/injection, schedule: Q01DX001 (ip), vehicle: Klucel (hydroxypropylcellulose) (HPC)): 105 % of control
T/C (endpoint: median survival time, dose: 80.0 mg/kg/injection, schedule: Q01DX001 (ip), vehicle: Klucel (hydroxypropylcellulose) (HPC)): 111 % of control
T/C (endpoint: median survival time, dose: 160.0 mg/kg/injection, schedule: Q01DX001 (ip), vehicle: Klucel (hydroxypropylcellulose) (HPC)): 113 % of control
T/C (endpoint: median survival time, dose: 320.0 mg/kg/injection, schedule: Q01DX001 (ip), vehicle: Klucel (hydroxypropylcellulose) (HPC)): 91 % of control

Nc1ncn(C2OC(CO)C(O)C2O)c(=O)n1 (stereo unspecified)
T/C (endpoint: mean survival time, dose: 0.75 mg/kg/injection, schedule: Q01DX009 (ip), vehicle: saline): 116 % of control
T/C (endpoint: mean survival time, dose: 1.5 mg/kg/injection, schedule: Q01DX009 (ip), vehicle: saline): 116 % of control
T/C (endpoint: mean survival time, dose: 3.0 mg/kg/injection, schedule: Q01DX009 (ip), vehicle: saline): 120 % of control
T/C (endpoint: median survival time, dose: 0.28 mg/kg/injection, schedule: Q03HX024 (ip), vehicle: saline): 100 % of control
T/C (endpoint: median survival time, dose: 0.5 mg/kg/injection, schedule: Q01DX005 (ip), vehicle: water): 103 % of control
T/C (endpoint: median survival time, dose: 0.59 mg/kg/injection, schedule: Q03HX024 (ip), vehicle: saline): 151 % of control
T/C (endpoint: median survival time, dose: 1.0 mg/kg/injection, schedule: Q01DX005 (ip), vehicle: water): 103 % of control
T/C (endpoint: median survival time, dose: 1.17 mg/kg/injection, schedule: Q03HX024 (ip), vehicle: saline): 261 % of control
T/C (endpoint: median survival time, dose: 2.0 mg/kg/injection, schedule: Q01DX005 (ip), vehicle: water): 114 % of control
T/C (endpoint: median survival time, dose: 2.25 mg/kg/injection, schedule: Q03HX024 (ip), vehicle: saline): 170 % of control
T/C (endpoint: median survival time, dose: 2.34 mg/kg/injection, schedule: Q03HX024 (ip), vehicle: saline): 293 % of control
T/C (endpoint: median survival time, dose: 3.12 mg/kg/injection, schedule: Q01DX009 (ip), vehicle: saline): 213 % of control
T/C (endpoint: median survival time, dose: 4.5 mg/kg/injection, schedule: Q03HX024 (ip), vehicle: saline): 113 % of control
T/C (endpoint: median survival time, dose: 4.69 mg/kg/injection, schedule: Q03HX024 (ip), vehicle: saline): 363 % of control
T/C (endpoint: median survival time, dose: 6.0 mg/kg/injection, schedule: Q01DX009 (ip), vehicle: saline): 173 % of control
T/C (endpoint: median survival time, dose: 6.25 mg/kg/injection, schedule: Q01DX009 (ip), vehicle: saline): 214 % of control
T/C (endpoint: median survival time, dose: 8.0 mg/kg/injection, schedule: Q01DX005 (ip), vehicle: water): 98 % of control
T/C (endpoint: median survival time, dose: 9.38 mg/kg/injection, schedule: Q03HX024 (ip), vehicle: saline): 681 % of control
T/C (endpoint: median survival time, dose: 12.0 mg/kg/injection, schedule: Q01DX009 (ip), vehicle: saline): 102 % of control
T/C (endpoint: median survival time, dose: 12.5 mg/kg/injection, schedule: Q01DX009 (ip), vehicle: saline): 250 % of control and 284 % of control and 325 % of control
T/C (endpoint: median survival time, dose: 18.75 mg/kg/injection, schedule: Q03HX024 (ip), vehicle: saline): 681 % of control
T/C (endpoint: median survival time, dose: 25.0 mg/kg/injection, schedule: Q01DX009 (ip), vehicle: saline): 298 % of control and 300 % of control and 348 % of control
T/C (endpoint: median survival time, dose: 50.0 mg/kg/injection, schedule: Q01DX009 (ip), vehicle: saline): 290 % of control and 295 % of control and 334 % of control
T/C (endpoint: median survival time, dose: 75.0 mg/kg/injection, schedule: Q03HX024 (ip), vehicle: saline): 98 % of control
T/C (endpoint: median survival time, dose: 100.0 mg/kg/injection, schedule: Q01DX009 (ip), vehicle: saline): 348 % of control and 378 % of control and 386 % of control
T/C (endpoint: median survival time, dose: 200.0 mg/kg/injection, schedule: Q01DX009 (ip), vehicle: saline): 151 % of control and 209 % of control
T/C (endpoint: median survival time, dose: 400.0 mg/kg/injection, schedule: Q01DX009 (ip), vehicle: saline): 181 % of control

O=NN(CCCl)C(=O)NCCCl
T/C (endpoint: mean survival time, dose: 10.0 mg/kg/injection, schedule: Q01DX001 (ip), vehicle: saline): 175 % of control
T/C (endpoint: mean survival time, dose: 15.0 mg/kg/injection, schedule: Q01DX002 (ip), vehicle: saline + alcohol): 184 % of control
T/C (endpoint: mean survival time, dose: 20.0 mg/kg/injection, schedule: Q01DX001 (ip), vehicle: saline + alcohol): 169 % of control and 182 % of control
T/C (endpoint: mean survival time, dose: 20.0 mg/kg/injection, schedule: Q01DX001 (ip), vehicle: saline): 210 % of control and 254 % of control
T/C (endpoint: mean survival time, dose: 20.0 mg/kg/injection, schedule: Q01DX002 (ip), vehicle: saline + alcohol): 281 % of control
T/C (endpoint: mean survival time, dose: 25.0 mg/kg/injection, schedule: Q01DX002 (ip), vehicle: saline + alcohol): 348 % of control
T/C (endpoint: mean survival time, dose: 30.0 mg/kg/injection, schedule: Q01DX001 (ip), vehicle: saline + alcohol): 220 % of control and 319 % of control
T/C (endpoint: mean survival time, dose: 30.0 mg/kg/injection, schedule: Q01DX002 (ip), vehicle: saline + alcohol): 184 % of control
T/C (endpoint: mean survival time, dose: 40.0 mg/kg/injection, schedule: Q01DX001 (ip), vehicle: saline + alcohol): 343 % of control
T/C (endpoint: mean survival time, dose: 40.0 mg/kg/injection, schedule: Q01DX001 (ip), vehicle: saline): 202 % of control
T/C (endpoint: median survival time, dose: 4.0 mg/kg/injection, schedule: Q01DX001 (ip), vehicle: saline + alcohol): 93 % of control
T/C (endpoint: median survival time, dose: 8.0 mg/kg/injection, schedule: Q01DX001 (ip), vehicle: saline + alcohol): 97 % of control
T/C (endpoint: median survival time, dose: 12.5 mg/kg/injection, schedule: Q01DX001 (ip), vehicle: DMSO): 173 % of control
T/C (endpoint: median survival time, dose: 16.0 mg/kg/injection, schedule: Q01DX001 (ip), vehicle: saline + alcohol): 97 % of control
T/C (endpoint: median survival time, dose: 20.0 mg/kg/injection, schedule: Q01DX001 (ip), vehicle: distilled water + alcohol): 305 % of control
T/C (endpoint: median survival time, dose: 20.0 mg/kg/injection, schedule: Q01DX001 (ip), vehicle: saline + alcohol): 190 % of control
T/C (endpoint: median survival time, dose: 24.0 mg/kg/injection, schedule: Q01DX001 (ip), vehicle: saline + alcohol): 122 % of control and 153 % of control and 270 % of control
T/C (endpoint: median survival time, dose: 25.0 mg/kg/injection, schedule: Q01DX001 (ip), vehicle: DMSO): 253 % of control
T/C (endpoint: median survival time, dose: 30.0 mg/kg/injection, schedule: Q01DX001 (ip), vehicle: saline + alcohol): 201 % of control and 313 % of control
T/C (endpoint: median survival time, dose: 40.0 mg/kg/injection, schedule: Q01DX001 (ip), vehicle: distilled water + alcohol): 183 % of control
T/C (endpoint: median survival time, dose: 40.0 mg/kg/injection, schedule: Q01DX001 (ip), vehicle: saline + alcohol): 220 % of control
T/C (endpoint: median survival time, dose: 60.0 mg/kg/injection, schedule: Q01DX001 (ip), vehicle: saline + alcohol): 166 % of control

CN(C)/N=N/c1[nH]ncc1C(N)=O
T/C (endpoint: median survival time, dose: 32.0 mg/kg/injection, schedule: Q01DX005 (ip), vehicle: saline with Tween-80): 112 % of control
T/C (endpoint: median survival time, dose: 128.0 mg/kg/injection, schedule: Q01DX005 (ip), vehicle: saline with Tween-80): 122 % of control
T/C (endpoint: median survival time, dose: 256.0 mg/kg/injection, schedule: Q01DX005 (ip), vehicle: saline with Tween-80): 114 % of control

COc1cc2c(c3c1c(=O)c1ccccc1n3C)C=CC(C)(C)O2
T/C (endpoint: median survival time, dose: 128.0 mg/kg/injection, schedule: Q01DX005 (ip), vehicle: Klucel (hydroxypropylcellulose) (HPC)): 108 % of control

CN(C)N=Nc1ccc(C(=O)O)cc1
T/C (endpoint: mean survival time, dose: 10.0 mg/kg/injection, schedule: Q01DX007 (ip), vehicle: DMSO): 91 % of control
T/C (endpoint: mean survival time, dose: 20.0 mg/kg/injection, schedule: Q01DX007 (ip), vehicle: DMSO): 96 % of control
T/C (endpoint: mean survival time, dose: 25.0 mg/kg/injection, schedule: Q01DX009 (ip), vehicle: saline): 104 % of control
T/C (endpoint: mean survival time, dose: 40.0 mg/kg/injection, schedule: Q01DX007 (ip), vehicle: DMSO): 108 % of control
T/C (endpoint: mean survival time, dose: 50.0 mg/kg/injection, schedule: Q01DX009 (ip), vehicle: saline): 119 % of control
T/C (endpoint: mean survival time, dose: 80.0 mg/kg/injection, schedule: Q01DX007 (ip), vehicle: DMSO): 122 % of control
T/C (endpoint: mean survival time, dose: 200.0 mg/kg/injection, schedule: Q01DX009 (ip), vehicle: saline): 113 % of control
